pIC50: −log10 of the molar value. Where a name gives a salt, the structure may show the parent alone.
Assays:
[1] = biological target: recombinant Chk2 protein kinase (Homo sapiens, UniProt O96017); test: Chk2 biochemical assay (CHK2/substrate peptide filter binding); conditions: 60 μM ATP, 1.4 nM Chk2 enzyme
Procedure: The effect of compounds on Chk2 biochemical activity can be determined using a CHK2/substrate peptide filter binding assay. In this assay, a synthetic peptide based on the amino acid sequence residues 206-225 of Cdc25C, is used as a phospho-acceptor substrate for recombinant Chk2 protein kinase. Using γ-^33P-ATP as the phospho-donor substrate, Chk2 transfers the radioactive γ-^33phosphate group to the synthetic peptide. The reaction is measured by capturing the peptide substrate on a cation exchange paper filter plate and scintillation counting of emitted beta particles.
The kinase reactions (40 μL reaction volumes) are performed in 96-well V-bottom polystyrene plates. Reactions are initiated with the addition of Chk2 enzyme. […]
Following Chk2 enzyme addition, the reactions are incubated at room temperature for 90 min, and then terminated with the addition of 140 μL of phosphoric acid. […] After sitting for 4 h at room temperature, the radioactivity in the plate is measured using a MicroBeta Trilux microplate scintillation counter (Perkin Elmer).
For IC50 determination, the percent inhibition for each concentration is calculated using the […] from controls run on each plate. […] Absolute IC50 values are calculated from the resulting curve. […]

[2] = tested on: HT-29 colon tumor xenograft; test: HT-29 tumor xenograft model, subcutaneous administration of Chk1 inhibitor; type: in vivo, nude mice
Procedure: (§1) The ability of Chk1 inhibitors to potentiate tumor killing by DNA damaging agents can be determined in vivo using the Calu-6 lung and HT-29 colon tumor xenograft efficacy models. Calu-6 lung cancer cells are cultured in growth media (MEM with Earle's Balanced Salt Solution with L-glutamine supplemented with 10% (v/v) heat inactivated FBS, 1×MEM non-essential amino acids, 1× sodium pyruvate) and HT-29 colon cancer cells (ATCC) are cultured in growth media, (McCoy's 5A medium supplemented with 10% FBS) and expanded.
(§2) Cells are harvested and washed twice with phosphate buffered saline and 5×10^6 cells (HT-29) or 1×10^6 a cells (Calu-6) in growth media (without serum) are mixed with equal volume of BD Matrigel™ matrix, then injected subcutaneously into the flank of nude mice (CD-1 nu/nu).
(§3) At about day 16 after implant ([…]), gemcitabine is formulated fresh in saline daily and administered to animals by intraperitoneal route at 60 mg/kg dose. Twenty four hours later animals are administered the compound of Example 3, in 0.2% Tween-80/0.5% methylcellulose subcutaneously BID. After […], dosing is repeated for three additional cycles (Q4Dx4 with the compound of Example 3 offset+24 hours), Tumor growth inhibition (TGI) is calculated as the percent reduction in mean tumor size of a compound treated group from the mean tumor size of the vehicle-treated control group. Compounds within the scope of the invention are tested in this assay run substantially as above.

[3] = tested on: Calu-6 lung tumor xenograft; test: Calu-6 tumor xenograft model, subcutaneous administration of Chk1 inhibitor; type: in vivo, nude mice
Procedure: as §1, §2, §3

[4] = tested on: Calu-6 lung tumor xenograft; test: Calu-6 tumor xenograft model, oral administration of Chk1 inhibitor; type: in vivo, nude mice
Procedure: as §1, §2
At about day 16 after implant (150-200 mm^3), gemcitabine is formulated fresh in saline daily and administered to animals by intraperitoneal route at 40 mg/kg dose. Twenty four hours later animals are administered Chk1 compound, in 0.2% Tween-80/0.5% methylcellulose by the oral route MD. After three days of rest, dosing was repeated for three additional cycles (Q5Dx4 with the compound of Example 3 offset+24 hours). Tumor growth inhibition (TGI) is calculated as described in the previous paragraph. Compounds within the scope of the invention are tested in this assay run substantially as above.

Chain of recombinant Chk2 protein kinase (O96017 whole entry, the tested form may be a part): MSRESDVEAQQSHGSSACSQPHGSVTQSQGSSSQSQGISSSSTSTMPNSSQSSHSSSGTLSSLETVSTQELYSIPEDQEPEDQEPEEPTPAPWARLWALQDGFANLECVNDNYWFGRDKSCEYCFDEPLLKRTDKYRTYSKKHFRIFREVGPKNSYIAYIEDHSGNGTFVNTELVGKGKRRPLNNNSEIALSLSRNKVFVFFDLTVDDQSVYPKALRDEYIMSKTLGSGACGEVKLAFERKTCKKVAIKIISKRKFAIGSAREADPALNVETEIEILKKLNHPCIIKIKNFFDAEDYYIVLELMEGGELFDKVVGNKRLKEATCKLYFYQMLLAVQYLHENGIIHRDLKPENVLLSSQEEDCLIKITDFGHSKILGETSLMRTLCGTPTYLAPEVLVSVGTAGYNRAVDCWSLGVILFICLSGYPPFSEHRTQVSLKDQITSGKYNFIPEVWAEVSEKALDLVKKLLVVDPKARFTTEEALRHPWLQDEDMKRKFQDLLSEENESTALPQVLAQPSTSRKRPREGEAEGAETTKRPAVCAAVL

| pIC50 [1] | Compound | % TGI at day 38 ([2]; HT29, Example 3 40 mpk subcutaneous BID alone) | anti-tumor activity in combination with gemcitabine ([2]; HT-29 xenograft, subcutaneous BID, gemcitabine 60 mg/kg ip) | increase in tumor growth inhibition over gemcitabine alone ([2]; subcutaneous, stated for HT-29 and Calu-6 models together) | % TGI at day 47 ([3]; Calu 6, Example 3 40 mpk subcutaneous BID alone) | anti-tumor activity in combination with gemcitabine ([3]; Calu-6 xenograft, subcutaneous BID, gemcitabine 60 mg/kg ip) | % TGI at day 37 ([4]; Calu6, Example 3 30 mpk oral alone) | anti-tumor activity in combination with gemcitabine ([4]; Calu-6 xenograft, oral, gemcitabine 40 mg/kg ip) |
| --- | --- | --- | --- | --- | --- | --- | --- | --- |
| 7.96 | COc1nc(C)ccc1-c1cc(Nc2cncc(O[C@@H]3CCCNC3)n2)[nH]n1 [Example 1, (R)-[5-(2-Methoxy-6-methyl-pyridin-3-yl)-2H-pyrazol-3-yl]-[6-(piperidin-3-yloxy)-pyrazin-2-yl]-amine] |  |  |  |  |  |  |  |
|  | COc1nc(C)ccc1-c1cc(Nc2cncc(O[C@@H]3CCCNC3)n2)[nH]n1 [Example 3, (R)-[5-(2-Methoxy-6-methyl-pyridin-3-yl)-2H-pyrazol-3-yl]-[6-(piperidin-3-yloxy)-pyrazin-2-yl]-amine acetic acid salt] | 26% | excellent dose dependent anti-tumor activity | up to a six-fold increase in tumor growth inhibition over gemcitabine alone | −19% | excellent dose dependent anti-tumor activity | 37% | excellent dose dependent anti-tumor activity |

Reference: patent US9067920B2, “Compounds useful for inhibiting Chk1” (Eli Lilly and Company, priority 2010, dated 2015)
